From PubChem BioAssay (NCI)
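The compound was tested at five concentrations on cells cultured in 96-well plates, with a 48-hour exposure period. GI50 is the concentration that inhibits growth by half. TGI: total growth inhibition.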

What was measured:
Assay in all cases: NCI anticancer screen, dose series, 48 h
786-0 renal = system: 786-0 renal
A498 renal = system: A498 renal
A549 NSCLC = system: A549 NSCLC
ACHN renal = system: ACHN renal
BT-549 breast = system: BT-549 breast
CAKI-1 renal = system: CAKI-1 renal
CCRF-CEM leukemia = system: CCRF-CEM leukemia
COLO 205 colon = system: COLO 205 colon
DU-145 prostate = system: DU-145 prostate
EKVX NSCLC = system: EKVX NSCLC
HCC-2998 colon = system: HCC-2998 colon
HCT-116 colon = system: HCT-116 colon
HCT-15 colon = system: HCT-15 colon
HL-60(TB) leukemia = system: HL-60(TB) leukemia
HOP-62 NSCLC = system: HOP-62 NSCLC
HOP-92 NSCLC = system: HOP-92 NSCLC
HS 578T breast = system: HS 578T breast
HT29 colon = system: HT29 colon
IGROV1 ovarian = system: IGROV1 ovarian
K-562 leukemia = system: K-562 leukemia
KM12 colon = system: KM12 colon
LOX IMVI melanoma = system: LOX IMVI melanoma
M14 melanoma = system: M14 melanoma
MALME-3M melanoma = system: MALME-3M melanoma
MCF7 breast = system: MCF7 breast
MDA-MB-231 breast = system: MDA-MB-231 breast
MDA-MB-435 = system: MDA-MB-435
MOLT-4 leukemia = system: MOLT-4 leukemia
NCI-H226 lung = system: NCI-H226 lung
NCI-H23 lung = system: NCI-H23 lung
NCI-H460 lung = system: NCI-H460 lung
NCI-H522 lung = system: NCI-H522 lung
NCI/ADR-RES ovarian = system: NCI/ADR-RES ovarian
OVCAR-3 ovarian = system: OVCAR-3 ovarian
OVCAR-4 ovarian = system: OVCAR-4 ovarian
OVCAR-5 ovarian = system: OVCAR-5 ovarian
OVCAR-8 ovarian = system: OVCAR-8 ovarian
PC-3 prostate = system: PC-3 prostate
RPMI-8226 leukemia = system: RPMI-8226 leukemia
RXF 393 renal = system: RXF 393 renal
SF-268 CNS = system: SF-268 CNS
SF-295 CNS = system: SF-295 CNS
SF-539 CNS = system: SF-539 CNS
SK-MEL-2 melanoma = system: SK-MEL-2 melanoma
SK-MEL-28 melanoma = system: SK-MEL-28 melanoma
SK-MEL-5 melanoma = system: SK-MEL-5 melanoma
SK-OV-3 ovarian = system: SK-OV-3 ovarian
SN12C renal = system: SN12C renal
SNB-19 CNS = system: SNB-19 CNS
SNB-75 CNS = system: SNB-75 CNS
SR leukemia = system: SR leukemia
SW-620 colon = system: SW-620 colon
T-47D breast = system: T-47D breast
TK-10 renal = system: TK-10 renal
U251 CNS = system: U251 CNS
UACC-257 melanoma = system: UACC-257 melanoma
UACC-62 melanoma = system: UACC-62 melanoma
UO-31 renal = system: UO-31 renal

CNC(=O)c1cccc2cc(Oc3ccnc4cc(OCC5(N)CC5)c(OC)cc34)ccc12
GI50 (786-0 renal): 2.82 µM | TGI (786-0 renal): 10.1 µM | GI50 (A498 renal): 0.167 µM | TGI (A498 renal): 3.12 µM | GI50 (A549 NSCLC): 10.9 µM | TGI (A549 NSCLC): 26.3 µM | GI50 (ACHN renal): 1.96 µM | TGI (ACHN renal): 4.48 µM | GI50 (BT-549 breast): 5.63 µM | TGI (BT-549 breast): 22.1 µM | GI50 (CAKI-1 renal): 11.9 µM | TGI (CAKI-1 renal): 25 µM | GI50 (CCRF-CEM leukemia): 4.78 µM | TGI (CCRF-CEM leukemia): 29.7 µM | GI50 (COLO 205 colon): 8.66 µM | TGI (COLO 205 colon): 23.7 µM | GI50 (DU-145 prostate): 12.1 µM | TGI (DU-145 prostate): 25.5 µM | GI50 (EKVX NSCLC): 14.6 µM | TGI (EKVX NSCLC): 34.5 µM | GI50 (HCC-2998 colon): 11 µM | TGI (HCC-2998 colon): 26.2 µM | GI50 (HCT-116 colon): 5.2 µM | TGI (HCT-116 colon): 17.8 µM | GI50 (HCT-15 colon): 6.56 µM | TGI (HCT-15 colon): 20.2 µM | GI50 (HL-60(TB) leukemia): 8.26 µM | TGI (HL-60(TB) leukemia): 26.3 µM | GI50 (HOP-62 NSCLC): 10.7 µM | TGI (HOP-62 NSCLC): 27.6 µM | GI50 (HOP-92 NSCLC): 6.89 µM | TGI (HOP-92 NSCLC): 21 µM | GI50 (HS 578T breast): 5.5 µM | TGI (HS 578T breast): 30.2 µM | GI50 (HT29 colon): 6.73 µM | TGI (HT29 colon): 21.1 µM | GI50 (IGROV1 ovarian): 7.63 µM | TGI (IGROV1 ovarian): 28.2 µM | GI50 (K-562 leukemia): 3.55 µM | TGI (K-562 leukemia): 16.7 µM | GI50 (KM12 colon): 6.17 µM | TGI (KM12 colon): 19.7 µM | GI50 (LOX IMVI melanoma): 3.89 µM | TGI (LOX IMVI melanoma): 17.1 µM | GI50 (M14 melanoma): 8.47 µM | TGI (M14 melanoma): 24.3 µM | GI50 (MALME-3M melanoma): 9.07 µM | TGI (MALME-3M melanoma): 26.8 µM | GI50 (MCF7 breast): 3.89 µM | TGI (MCF7 breast): 17.8 µM | GI50 (MDA-MB-231 breast): 9.79 µM | TGI (MDA-MB-231 breast): 27.9 µM | GI50 (MDA-MB-435): 3.09 µM | TGI (MDA-MB-435): 12 µM | GI50 (MOLT-4 leukemia): 3.49 µM | TGI (MOLT-4 leukemia): 21.6 µM | GI50 (NCI-H226 lung): 1.02 µM | TGI (NCI-H226 lung): 23.2 µM | GI50 (NCI-H23 lung): 11.2 µM | TGI (NCI-H23 lung): 28.9 µM | GI50 (NCI-H460 lung): 5.12 µM | TGI (NCI-H460 lung): 18.1 µM | GI50 (NCI-H522 lung): 8.94 µM | TGI (NCI-H522 lung): 25.6 µM | GI50 (NCI/ADR-RES ovarian): 12.7 µM | TGI (NCI/ADR-RES ovarian): 31.9 µM | GI50 (OVCAR-3 ovarian): 8.86 µM | TGI (OVCAR-3 ovarian): 23.7 µM | GI50 (OVCAR-4 ovarian): 2.89 µM | TGI (OVCAR-4 ovarian): 21.8 µM | GI50 (OVCAR-5 ovarian): 6.94 µM | TGI (OVCAR-5 ovarian): 19.3 µM | GI50 (OVCAR-8 ovarian): 8.77 µM | TGI (OVCAR-8 ovarian): 27.4 µM | GI50 (PC-3 prostate): 11 µM | TGI (PC-3 prostate): 25.9 µM | GI50 (RPMI-8226 leukemia): 12.9 µM | TGI (RPMI-8226 leukemia): 39.7 µM | GI50 (RXF 393 renal): 4.42 µM | TGI (RXF 393 renal): 20.4 µM | GI50 (SF-268 CNS): 6.01 µM | TGI (SF-268 CNS): 24.2 µM | GI50 (SF-295 CNS): 10.1 µM | TGI (SF-295 CNS): 25 µM | GI50 (SF-539 CNS): 0.403 µM | TGI (SF-539 CNS): 6.61 µM | GI50 (SK-MEL-2 melanoma): 14.3 µM | TGI (SK-MEL-2 melanoma): 32 µM | GI50 (SK-MEL-28 melanoma): 10.4 µM | TGI (SK-MEL-28 melanoma): 30.3 µM | GI50 (SK-MEL-5 melanoma): 13.4 µM | TGI (SK-MEL-5 melanoma): 26.7 µM | GI50 (SK-OV-3 ovarian): 12.1 µM | TGI (SK-OV-3 ovarian): 26.3 µM | GI50 (SN12C renal): 6.01 µM | TGI (SN12C renal): 24.1 µM | GI50 (SNB-19 CNS): 5.82 µM | TGI (SNB-19 CNS): 30.4 µM | GI50 (SNB-75 CNS): 0.76 µM | TGI (SNB-75 CNS): 15.5 µM | GI50 (SR leukemia): 2.29 µM | TGI (SR leukemia): 10.6 µM | GI50 (SW-620 colon): 5.96 µM | TGI (SW-620 colon): 20.5 µM | GI50 (T-47D breast): 17.8 µM | TGI (T-47D breast): 39.2 µM | GI50 (TK-10 renal): 12.9 µM | TGI (TK-10 renal): 26.6 µM | GI50 (U251 CNS): 9.43 µM | TGI (U251 CNS): 23.3 µM | GI50 (UACC-257 melanoma): 16.5 µM | TGI (UACC-257 melanoma): 32.2 µM | GI50 (UACC-62 melanoma): 4.03 µM | TGI (UACC-62 melanoma): 15.9 µM | GI50 (UO-31 renal): 2.57 µM | TGI (UO-31 renal): 8.16 µM
